Assay results reported in patent EP0351784A2, “Therapeutic use of the isopropyl ester derivative of monosialoganglioside in nervous pathologies with an inflammatory component” (FIDIA S.p.A., priority 1988, dated 1990).

Assays:
[1] = tested on: Sprague-Dawley rats; assay: acetic acid-induced peritonitis test (antiexudative activity); type: in vivo, rat; details: for % inhibition: peritoneal exudate
Description: The study was conducted on Sprague-Dawley rats, weighing between 200 and 300 gr. An evaluation was made of the capacity of the isopropyl ester of GM₁ ganglioside (hereafter known as AGF₄₄) and GM₁ itself, to inhibit the formation of peritoneal exudate following intraperitoneal injection (10 ml/kg) of a 0.5% acetic acid solution. To study administration by oral, subcutaneous and intraperitoneal routes, AGF₄₄ and GM₁ (solubilized in 10 ml/kg of sterile saline physiological solution) and a comparison compound indomethacin were administered by the individual routes one hour before the injection of acetic acid. To study topical administration, one hour before i.p. injection of acetic acid, AGF₄₄ and GM₁ in the form of 0.1% aqueous gels and the comparison 5% Artrosilene gel (ketoprofen lysine salt) were applied to the right paws with a light massage for 30 seconds to ensure complete absorption of the gel. The control groups received saline physiological solution (10 ml/kg) and placebo gel (0.2 ml/rat), respectively. 30 minutes after exudate inducement the animals were sacrificed, samples were taken of the peritoneal exudate and the percentage of inhibition of the same in relation to control values was calculated.

[2] = tested on: male Sprague Dawley rats; assay: carrageenan-induced edema test in the paw (antiedematous activity); type: in vivo, rat; details: for % inhibition: paw volume increase at 3rd hour
Description: The study was conducted on male Sprague Dawley rats, weighing about 160 ± 10 gr. An evaluation was made of the activity of the isopropyl ester of GM₁ ganglioside (AGF₄₄) and GM₁ in inhibiting the formation of edema following injection of a sterile aqueous solution of 1% carrageenan into the plantar aponeurosis of the right hand paw (0.1 ml/rat). To study administration by oral, subcutaneous and intraparitoneal routes, AGF₄₄ and GM₁ (solubilized in 10 ml/kg of sterile saline physiological solution) were compared to indomethacin as a comparison compound. For study of the oral route, each compound was administered by oral route one hour before injection of carrageenan. For study of the subcutaneous and intraperitoneal routes, each compound was administered 30 minutes before the same. To study topical administration, AGF₄₄ and GM₁ (as 0.1% aqueous gels) were compared to 5% Artrosilene gel (ketoprefene lysine salt). Each compound was applied locally to the right paw, and administration was effected twice, one hour before and immediately after injection of carrageenan, massaging lightly for 30 seconds to ensure complete absorption. The control groups received saline physiological solution (10 ml/kg) and placebo gel (0.2-0.4 ml/rat twice) respectively. Plethysmometric evaluation of the volume of the right paw was effected immediately before sub-plantar injection of carrageenan an 3 hours after the same. The antiedematous effect of the treatment was calculated by evaluating the average increase in paw volume at the 3rd hour (compared to time 0) based on control values.

[3] = intraperitoneal, 1 mg/kg, one hour before acetic acid
[4] = oral, 1 mg/kg, one hour before i.p. 0.5% acetic acid (10 ml/kg)
[5] = oral, 2.5 mg/kg, one hour before acetic acid
[6] = subcutaneous, 1 mg/kg, one hour before acetic acid
[7] = subcutaneous, 2.5 mg/kg, one hour before acetic acid
[8] = intraperitoneal, 1 mg/kg, 30 minutes before carrageenan
[9] = intraperitoneal, 5 mg/kg, 30 minutes before carrageenan
[10] = oral, 1 mg/kg, one hour before 1% carrageenan
[11] = oral, 5 mg/kg, one hour before carrageenan
[12] = subcutaneous, 1 mg/kg, 30 minutes before carrageenan
[13] = subcutaneous, 5 mg/kg, 30 minutes before carrageenan
[14] = intraperitoneal, 2.5 mg/kg, one hour before acetic acid
[15] = topical to right paw, 0.1% gel 0.2 ml/rat, 1.4 mg/kg, one hour before acetic acid
[16] = intraperitoneal, 2 mg/kg, 30 minutes before carrageenan
[17] = oral, 2 mg/kg, one hour before carrageenan
[18] = subcutaneous, 2 mg/kg, 30 minutes before carrageenan

Compound: COc1ccc2c(c1)c(CC(=O)O)c(C)n2C(=O)c1ccc(Cl)cc1 [Indomethacin, indomethacin, reference compound]
- % inhibition [1, 3]: 70%
- % inhibition [1, 4]: 74%
- % inhibition [1, 5]: 90%
- % inhibition [1, 6]: 64%
- % inhibition [1, 7]: 84%
- % inhibition [2, 8]: 23%
- % inhibition [2, 9]: 67%
- % inhibition [2, 10]: 22%
- % inhibition [2, 11]: 67%
- % inhibition [2, 12]: 30%
- % inhibition [2, 13]: 60%

Compound: GM₁ ganglioside [GM1, reference compound]
- % inhibition [1, 3]: 47%
- % inhibition [1, 14]: 51%
- % inhibition [1, 4]: 56%
- % inhibition [1, 5]: 63%
- % inhibition [1, 6]: 44%
- % inhibition [1, 7]: 52%
- % inhibition [1, 15]: 30%
- % inhibition [2, 16]: 20%
- % inhibition [2, 9]: 30%
- % inhibition [2, 17]: 20%
- % inhibition [2, 11]: 32%
- % inhibition [2, 18]: 19%
- % inhibition [2, 13]: 31%
- % inhibition ([2]; topical, 0.1% gel 0.2 ml/rat/twice, dose in mg/kg not given): 20%

Compound: isopropyl ester of GM₁ ganglioside [GM1 isopropyl ester]
- Peritoneal exudate inhibition ([1]; after oral administration): 70-80%
- antiexudative efficacy ([1]; at doses of less than 0.1 mg/kg (in the order of 0.1 mg/kg)): efficacious
- antiexudative activity ([1]; at doses of over 10 mg/kg): the activity decreases
- antiexudative activity compared with indomethacin ([1]; oral, at 1 mg/kg): comparable to that of indomethacin
- % inhibition [1, 3]: 55%
- % inhibition [1, 14]: 60%
- % inhibition ([1]; intraperitoneal, 5 mg/kg, one hour before acetic acid): 64%
- % inhibition [1, 4]: 70%
- % inhibition [1, 5]: 72%
- % inhibition ([1]; oral, 5 mg/kg, one hour before acetic acid): 77%
- % inhibition [1, 6]: 47%
- % inhibition [1, 7]: 61%
- % inhibition ([1]; subcutaneous, 5 mg/kg, one hour before acetic acid): 70%
- % inhibition [1, 15]: 43%
- antiinflammatory activity ([2]; at doses of over 10 mg/kg): it diminishes at doses of over 10 mg/kg
- Maximum efficacy (inhibition) ([2]; by oral route): 50-60%
- % inhibition [2, 8]: 18%
- % inhibition [2, 16]: 32%
- % inhibition [2, 9]: 57%
- % inhibition [2, 10]: 20%
- % inhibition [2, 17]: 32%
- % inhibition [2, 11]: 60%
- % inhibition [2, 12]: 25%
- % inhibition [2, 18]: 30%
- % inhibition [2, 13]: 50%
- % inhibition ([2]; topical, 0.1% gel 0.2 ml/rat/twice, 1.25 x 2 mg/kg): 32%
- % inhibition ([2]; topical, 0.1% gel 0.4 ml/rat/twice, 2.5 x 2 mg/kg): 43%
